This is an account of results in patent publication US5034419A, “N-cycloalkylalkylamines, process for their preparation, their use as medicament and their synthesis intermediates” (L'Oreal, priority 1988, dated 1991).

Structures can show the parent of a compound that is named as a salt. Where two headings read alike, the source gives them in different places.

The target in one experiment is T1, kappa receptors (Cavia porcellus, UniProt P41144).
T1 construct: from tissue
In words: in vitro affinity for kappa receptors. The experiment is classed as binding. To be noted: Table 3; read-out: kappa rec. IC50. How it is done:
(§1) The "in vitro" study of the affinity of the compounds according to the invention for the three opium receptors is carried out in accordance with the technique described by F. Roman and coll. in J. Pharm. Pharmacol. 1987, 39, p. 404-407 and the study of the affinity for PCP receptors is carried out in accordance with the technique described by Vignon J. and coll. in "Brain Res." 1983; 280, p. 194-7 and 1986; 378, p. 133-41.
(§2) The results shown in table 3 are, for each receptor studied, expressed in IC50, which are the nanomolar concentrations of the dissolved products which are capable of inhibiting 50% of the bonds between the specific radioactive ligand to the receptor under consideration.

In another experiment the target is mu receptors. Put plainly: in vitro affinity for mu receptors. In kind it is binding. Conditions: Table 3; read-out: mu rec. IC50. How it is done: as §1, §2
A further experiment addresses PCP receptors. In words: in vitro affinity for phencyclidine (PCP) receptors. The experiment is classed as binding. Conditions: Table 3; read-out: PCP rec. IC50. The procedure:
as §1, §2

The target of a further experiment is T2, sigma receptors (Cavia porcellus, UniProt Q60492).
T2 construct: sigma receptors of the cerebral membranes of the guinea-pig used in this study; from tissue; host or cells: guinea-pig cerebral membranes
Put plainly: in vitro affinity for sigma receptors, competition with (+)[3H]SKF10,047. In kind it is binding, guinea-pig (cerebral membranes). The procedure: The test is carried out by incubating solutions of suitable concentrations of the products with standard samples of membranes and determining, after filtration, the residual radioactivity of the solution.

Another experiment has as its target T3, delta receptors (Cavia porcellus, UniProt A0A286XTF2).
T3 construct: from tissue
Put plainly: in vitro affinity for delta receptors. The experiment is classed as binding. Conditions: Table 3; read-out: delta rec. IC50. How it is done: as §1, §2

Experiment [1] is described as follows: protection from convulsions induced by picrotoxin in mice. The experiment is classed as in vivo, "Swiss" male mice. Conditions: for p.o.: % prot. (inhibition of convulsions induced by picrotoxin): 100 mg/kg p.o., picrotoxin 24 mg/kg i.p. 60 minutes later; for p.o.: % prot. (inhibition of convulsions induced by picrotoxin) / i.p.: % prot. (inhibition of convulsions induced by picrotoxin): * p<0.05, ** p<0.01, *** p<0.001; for i.p.: % prot. (inhibition of convulsions induced by picrotoxin): 50 mg/kg i.p., picrotoxin 24 mg/kg i.p. 30 minutes later; for ED50: Mus musculus. The procedure: b) The psychotropic properties of the compounds were determined by the protection from convulsions induced by picrotoxin in mice, which was realized in accordance with a method derived from that of Krall and coll., "Epilepsia", 1978, 19, p. 409-428.
The administration of picrotoxin to animals causes a convulsive attack characterized by a myoclonic extension syndrome followed by extension of the limbs leading to death of the animals. Certain substances, in particular those which act on the GABA/benzodiazepine/Cl-ionophor complex, provide protection of the animals from these convulsive attacks.
In practice, the study is carried out on groups of 10 "Swiss" male mice weighing about 20 g, to which the product under investigation is administered in aqueous solution either intraperitoneally (i.p.) or orally (p.o.).
An intraperitoneal injection of a solution of picrotoxin in an amount of 24 mg/kg in a volume of 0.2 ml per animal is then performed, either 30 minutes after intraperitoneal administration of the product or 60 minutes after oral administration of the product, the dose of the product injected in this way causing a clonic attack which leads to death of the untreated animals. Under the conditions of the test, suppression of the tonic extension phase is found in the animals treated.
The results are expressed:
either as the percentage of animals protected from this phase under the action of 50 mg/kg compound under investigation administered i.p. or 100 mg/kg p.o.,
or in the ED50 for each of these groups, which is the effective dose of the compound under investigation expressed in mg/kg which protects 50% of animals from this extension phase, the significance value of the results generally being indicated in the following manner: […]

Experiment [2] is described as follows: antagonism of amnesia caused by scopolamine, passive avoidance test. In kind it is in vivo, mice. How it is done: The animal is introduced into the illuminated compartment, and when it moves to the dark compartment it receives an electric current (0.35 mA) through the base until it returns to the illuminated compartment, from where it is then removed.
After 24 hours, the operation is repeated. The mouse is replaced in the apparatus and it avoids entering into the dark compartment. The time which elapses before passage into this compartment is recorded; under the conditions of the experiment, the efficacy of the compounds under investigation in antagonizing the amnesic effect of scopolamine, which is administered intraperitoneally in an amount of 1 mg/kg 30 minutes before the animal is first introduced into the apparatus, can be evaluated.
In control mice which have received only scopolamine, the time elapsed before passage after 24 hours is remarkably lower than that observed in the untreated animals.
The study of the products according to the invention by this method is performed on groups of 18 mice and the products are administered orally on the first day in an amount of 0.25 mg/kg 30 minutes before administration of scopolamine i.p.

Experiment [3] in a line: inhibition of gastro-duodenal ulcers caused by cysteamine. In kind it is in vivo, Wistar female rats. Conditions: Rattus norvegicus; cysteamine hydrochloride 400 mg/kg s.c.; products orally or subcutaneously; read-out: ED50 - ulceration scores. How it is done:
This activity is set in relation to the capacity of the products to cause an increase in the alkaline secretion in the duodenum in anaesthetized animals.
In this test, groups of 6 Wistar female rats with an average weight of 200 g receive a subcutaneous injection of cysteamine hydrochloride in an amount of 400 mg/kg. The products under investigation are administered orally or subcutaneously 1 h or, respectively, 30 minutes before the ulcerogenic agent.
Ten hours thereafter, the rats are sacrificed by elongation and their stomach and duodenum are removed, rinsed with physiological solution and mounted on a card. The presence of ulcers in the antro-pyloric-duodenal zone is examined and their area, expressed in mm^2, is evaluated by multiplying the two main perpendicular axis of the lesion. Statistical analysis of the results is performed with the aid of the Student test for the ulcerated areas in comparison with a control group receiving only excipient.
The results presented in table 5 are expressed in ED50 of ulceration scores, which are the effective doses, expressed in mg/kg product, which cause inhibition of 50% of the ulcerations caused by cysteamine.

The mark [4] stands for this setting: Table 3, read-out: sigma rec. IC50.
[5] abbreviates: Table 2, (+)[3H]SKF10,047, guinea-pig cerebral membranes, read-out: IC50 (bonding affinity to sigma receptors).
Where [6] appears, read: po, 1 h, read-out: p.o.: ED50 (inhibition of convulsions induced by picrotoxin).

T3 sequence (A0A286XTF2 1-366): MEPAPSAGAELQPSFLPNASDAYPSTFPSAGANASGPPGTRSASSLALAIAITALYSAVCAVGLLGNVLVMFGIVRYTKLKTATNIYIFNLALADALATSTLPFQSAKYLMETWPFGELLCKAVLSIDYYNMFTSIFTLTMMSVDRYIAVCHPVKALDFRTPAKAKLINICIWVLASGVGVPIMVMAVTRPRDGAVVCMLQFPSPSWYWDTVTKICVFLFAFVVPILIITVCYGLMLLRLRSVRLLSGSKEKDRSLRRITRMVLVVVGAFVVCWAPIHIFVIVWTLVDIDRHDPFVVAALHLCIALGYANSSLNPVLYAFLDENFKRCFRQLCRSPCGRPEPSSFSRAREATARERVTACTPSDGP
T1 sequence (P41144 whole entry): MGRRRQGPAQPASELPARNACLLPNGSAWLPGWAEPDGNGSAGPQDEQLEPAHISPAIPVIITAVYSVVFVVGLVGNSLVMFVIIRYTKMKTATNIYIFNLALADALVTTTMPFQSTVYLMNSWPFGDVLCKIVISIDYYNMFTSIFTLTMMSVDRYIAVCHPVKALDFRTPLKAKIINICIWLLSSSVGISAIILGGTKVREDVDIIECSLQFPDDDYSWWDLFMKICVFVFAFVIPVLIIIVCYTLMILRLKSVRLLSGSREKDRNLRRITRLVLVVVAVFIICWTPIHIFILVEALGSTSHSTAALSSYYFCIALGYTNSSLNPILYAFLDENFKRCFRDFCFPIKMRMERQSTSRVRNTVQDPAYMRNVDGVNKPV
T2 sequence (Q60492 whole entry): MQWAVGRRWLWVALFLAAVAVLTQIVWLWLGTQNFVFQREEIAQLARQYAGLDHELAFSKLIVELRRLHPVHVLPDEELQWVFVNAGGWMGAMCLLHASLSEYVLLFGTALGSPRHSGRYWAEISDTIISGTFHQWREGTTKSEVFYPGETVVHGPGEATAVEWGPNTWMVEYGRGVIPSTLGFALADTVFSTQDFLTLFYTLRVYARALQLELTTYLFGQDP

In the case of `CC(C)C(CC=Cc1ccccc1)(c1ccccc1)N(C)CC1CC1` (stereo not drawn) [Example 14, α-Cinnamyl-N-cyclopropylmethyl-α-isopropyl-N-methyl-benzylamine], the IC50 on kappa receptors was 76 µM; on mu receptors, 34.2 µM; at PCP receptors, 14.2 µM; at sigma receptors (setting [4]), 0.669 µM; at delta receptors, above 100 µM.
For `CCC(CC=Cc1ccccc1)(c1ccccc1)N(C)C[C@@H]1C[C@H]1c1ccccc1` (relative stereo) [Example 6, α-Cinnamyl-α-ethyl-N-methyl-N-(trans-2-phenyl-cyclopropyl)-methyl-benzylamine], on sigma receptors (setting [5]), the IC50 came out at 0.246 µM.
Regarding `CCC(CC=Cc1ccc(Cl)c(Cl)c1)(c1ccc(Cl)cc1)N(C)CC1CC1` (stereo not drawn) [Example 16, α-(3',4'-Dichloro)cinnamyl-N-cyclopropyl-methyl-α-ethyl-N-methyl-p-chlorobenzylamine], the “p.o.: % prot. (inhibition of convulsions induced by picrotoxin)” value in experiment [1] worked out at 60%.
As for `NC(=O)CN1CCCC1=O` [piracetam, reference compound], the “% antagonism of the amnesia” value in experiment [2] (2048 mg/kg p.o.) was 109%; in experiment [2] (2048 mg/kg p.o., listed as piracetam), “about 100%”.
On to `CCC(CC=Cc1ccccc1)(c1ccco1)N(C)CC1CC1` (stereo not drawn) [Example 20, α-Cinnamyl-N-cyclopropylmethyl-α-ethyl-N-methyl-2-furfurylamine], for which, in experiment [1], the “p.o.: % prot. (inhibition of convulsions induced by picrotoxin)” value is listed as 60%.
For `CCC(C[C@@H]1C[C@H]1c1ccccc1)(c1cccs1)N(C)CC1CC1` (relative stereo) [Example 24, trans-N-Cyclopropylmethyl-α-ethyl-N-methyl-α-(2-phenyl-1-cyclopropylmethyl)-2-thiophenemethylamine], the IC50 is 9.1 µM at kappa receptors, 3.02 µM on mu receptors, 0.029 µM on sigma receptors (setting [5]) and 57 µM on delta receptors. Also, the “i.p.: % prot. (inhibition of convulsions induced by picrotoxin)” value in experiment [1] was determined as 50%. The “p.o.: % prot. (inhibition of convulsions induced by picrotoxin)” value in experiment [1] is 50%. Also, the ED50 in experiment [3] worked out at 45.7 mg/kg.
Turning to `CCC(CC=Cc1ccccc1)(NC[C@@H]1C[C@H]1c1ccccc1)c1ccccc1` (relative stereo) [Example 3, α-Cinnamyl-α-ethyl-N-(trans-2-phenyl-cyclopropyl)methyl-benzylamine], the IC50 at sigma receptors (setting [5]) came out at 0.368 µM.
For the compound `CCC(CC=Cc1ccccc1)(c1ccccc1)N(C)CC1CC1` (single isomer, unassigned) [Example 11, (-)-α-Cinnamyl-N-cyclopropyl-methyl-α-ethyl-N-methyl-benzylamine hydrochloride], the IC50 at kappa receptors is 5.14 µM; on sigma receptors (IC50 (bonding affinity to sigma receptors), Table 2, (+)[3H]SKF10,047, guinea-pig cerebral membranes), 0.102 µM; at sigma receptors (sigma rec. IC50, Table 3), 0.21 µM; on delta receptors it was 41.6 µM. For the same compound, the “i.p.: % prot. (inhibition of convulsions induced by picrotoxin)” value in experiment [1] (hydrochloride) is recorded as 70%. Besides, in experiment [2] (0.25 mg/kg orally, scopolamine 1 mg/kg i.p. 30 minutes later, latency after 24 hours, hydrochloride), the “% antagonism of the amnesia” value was found to be 38%.
Take `CCC(CC=Cc1ccccc1)(NCC1(C)CC1)c1ccccc1` (stereo not drawn) [Example 2, α-Cinnamyl-α-ethyl-N-(1-methylcyclopropyl)-methyl-benzylamine]: the “p.o.: % prot. (inhibition of convulsions induced by picrotoxin)” value in experiment [1] turned out to be 90%.
As to `CCC(C[C@@H]1C[C@H]1c1ccccc1)(c1ccsc1)N(C)CC1CC1` (relative stereo) [Example 25, trans-N-Cyclopropylmethyl-α-ethyl-N-methyl-α-(2-phenyl-1-cyclopropylmethyl)-3-thiophenemethylamine], in experiment [1], the “i.p.: % prot. (inhibition of convulsions induced by picrotoxin)” value is listed as 50% and the “p.o.: % prot. (inhibition of convulsions induced by picrotoxin)” value turned out to be 50%.
As to `CCC(CC=Cc1ccccc1)(c1ccccc1)N(C)CCC1CC1` (stereo not drawn) [Example 8, α-Cinnamyl-N-cyclopropylethyl-α-ethyl-N-methyl-benzylamine], the IC50 at kappa receptors is 1.52 µM; at mu receptors it was 2.04 µM; on PCP receptors, 25.9 µM; at sigma receptors (setting [5]), 0.021 µM; on delta receptors, 7.55 µM. Further, the ED50 in experiment [1] (setting [6]) came to 53.6 mg/kg.
As to `CCC(C[C@@H]1C[C@H]1c1ccccc1)(c1ccco1)N(C)CC1CC1` (relative stereo) [Example 23, trans-N-Cyclopropylmethyl-α-ethyl-N-methyl-α-(2-phenyl-1-cyclopropylmethyl)-2-furfurylamine], the “i.p.: % prot. (inhibition of convulsions induced by picrotoxin)” value in experiment [1] stood at 50%.
With `CN(CC1CC1)C(C)(CC=Cc1ccccc1)c1ccccc1` (stereo not drawn) [Example 13, α-Cinnamyl-N-cyclopropylmethyl-N-α-dimethyl-benzylamine], the IC50 on kappa receptors was found to be 8.68 µM; at mu receptors, 10.2 µM; on PCP receptors, 10.5 µM; on sigma receptors (setting [4]), 0.337 µM; at delta receptors, 9.37 µM. Further, the ED50 in experiment [1] (ip, 0.5 h, read-out: i.p.: ED50 (inhibition of convulsions induced by picrotoxin)) was 32.5 mg/kg; in experiment [1] (setting [6]), 64.4 mg/kg.
